Reference: PMC8002823, “Synthesis and Structure–Activity Relationships of Aristoyagonine Derivatives as Brd4 Bromodomain Inhibitors with X-ray Co-Crystal Research” (Molecules, 2021)

How the values were obtained:
Brd4 bromodomain [1] = biological target: T1, Brd4 bromodomain (Homo sapiens, UniProt O60885); assay: Alpha-screen enzyme assay (bromodomain binding to acetylated histone peptide); settings: for IC50: inhibition of bromodomain binding activity, calculated with Prism6;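 for all read-outs here: AlphaScreen proximity readout pairing streptavidin donor beads with anti-GST acceptor beads, with hits checked against bead interference using a TruHit control kit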
T1 construct: glutathione-S-transferase (GST) and His-tagged bromodomain; made in house
Procedure: Bromodomain was prepared as previously described. […] Streptavidin-coated donor beads and anti-GST alpha-screen acceptor beads were added under low-light condition. […] The alpha-screen results were confirmed by using alpha-screen TruHit kits (PerkinElmer, USA).

Ty82 cells = assay: Cell cytotoxic assay in Ty82 cells; assay type: cell-based; settings: Homo sapiens; Ty82 cell cytotoxic activity, 72 h
Procedure: (§1) For the viability experiments, Ty82 cells were seeded in 96-well plates at 30% confluency and exposed to chemicals the next day. After 72 h, WST-1 reagent was added, and absorbance at 450 nm was measured by using a Spectramax spectrophotometer (Molecular Devices, San Jose, CA, USA) in accordance with the manufacturer’s instructions. The CC50 values were calculated by using GraphPad Prism version 5 for Windows. The curves were fitted using a nonlinear regression model with a log (inhibitor) versus response formula.

c-MYC = assay: Western blot of c-MYC level in NALM6 cells; assay type: cell-based; settings: 18 h treatment
Procedure: For immunoblotting, cells were washed in PBS, lysed in 1× sample buffer (50 mmol/L Tris-HCl (pH 6.8), 10% glycerol, 2% SDS, and 3% β-mercaptoethanol), and boiled for 10 min. Lysates were subjected to SDS-PAGE followed by blotting with the indicated antibodies and detection by western blotting substrate ECL reagent (Thermo Fisher Scientific, Waltham, MA, USA). Images were produced using a SensiQ-2000 (Lugen Sci Co., Seoul, KOREA). The following antibodies were obtained from Cell Signaling Technology (Danvers, MA, USA): c-Myc (catalog no. 5605). Tubulin antibody (catalog no. T6199) was purchased from Sigma-Aldrich. HRP-conjugated anti-mouse (catalog no. NCI1430KR), and HRP-conjugated anti-rabbit (catalog no. NCI1460KR) antibodies were obtained from Thermo Scientific.

[2] = Cell cytotoxic assay in Ty82 cells; assay type: cell-based; settings: human, Ty82 cells; Ty82 cell cytotoxic activity, 72 h
Procedure: as §1

Brd4 bromodomain [3] = tested on: Brd4 bromodomain; parameters: method as in PMID 29928885; settings: cited from earlier work

| SMILES | increase in activity compared with 8ba (Brd4 bromodomain [1]; Brd4 IC50 ratio) | IC50 (Brd4 bromodomain [1]; alpha-screen assay) | CC50 (Ty82 cells) | c-MYC level (c-MYC) | melting point | inhibitory activity against Brd4 bromodomain (in words) (Brd4 bromodomain [1]; alpha-screen assay) | CC50 at 72 h [2] | inhibition of binding of Brd4 bromodomain to acetylated histone peptide (in words) (Brd4 bromodomain [3]) |
| --- | --- | --- | --- | --- | --- | --- | --- | --- |
| COc1ccc2c(c1)C=C1c3c(ccc(OC)c3O2)C(=O)N1C [Compound 8bc, 5,9-Dimethoxy-1-methylbenzo[6,7]oxepino[4,3,2-cd]isoindol-2(1H)-one] | 40 fold | 410 nM | 660 nM | significantly decreased | 194 to 196 °C | – | – | – |
| CCOc1ccc2c3c1Oc1ccc(OC)cc1C=C3N(C)C2=O [Compound 8bk, 5-Ethoxy-9-methoxy-1-methylbenzo[6,7]oxepino[4,3,2-cd]isoindol-2(1H)-one] | – | 860 nM | 490 nM | significantly decreased | 214 to 216 °C | – | – | – |
| CCN(CC)c1ccc2c3c1Oc1ccc(OCC(C)C)cc1C=C3N(C)C2=O [Compound 8ca] | – | > 32000 nM | – | – | 183 to 185 °C | no inhibitory activity | > 20000 nM | – |
| COc1ccc2c(c1OC)Oc1c(OC)ccc3c1C(=C2)N(C)C3=O [aristoyagonine] | – | – | – | – | – | – | – | efficiently inhibited |
